The text below walks through data of PMC7160333, “Physiological Role of Glutamate Dehydrogenase in Cancer Cells” (Frontiers in Oncology, 2020).

SMILES strings stand for the structures. Where two headings read alike, the source gives them in different places.

Assay [1] concerns the target HepM GDH1 (Rattus norvegicus, UniProt P10860). As to the kind of experiment: GDH reverse (aminating) reaction activity in hepatoma mitochondria (HepM). The class given is biochemical. The note with it: for Vmax at given ADP concentration: HepM GDH, pH 7.50, 37°C, 280 μg protein, MWC fit, representative experiment; for EC50: Hill equation; for Ki: saturating ADP, read-out: Ki GTP. The protocol:
(§1) Tightly coupled mitochondria were isolated from fed-rat liver (RLM) and AS-30D cells (HepM) as described elsewhere ([89], [90]). […] The resulting mitochondrial fractions were resuspended at 30 to 80 mg protein/mL in SHE buffer with 1 mM PMSF, 1 mM EDTA, 5 mM DTT, and 10% glycerol, and stored at −70°C until use for determination of enzyme activity and Western blotting.

Assay [2] addresses RLM GDH1 (Rattus norvegicus, UniProt P10860). Nature of the assay: GDH reverse (aminating) reaction activity in rat liver mitochondria (RLM). The format is biochemical. Particulars: for Vmax at given ADP concentration: RLM GDH, pH 7.50, 37°C, 90 μg protein, MWC fit, representative experiment; for EC50: Hill equation; for Ki: saturating ADP, read-out: Ki GTP. The procedure: as §1

Assay [3] deals with recombinant human GDH isoforms (GDH1 and GDH2), bovine liver GDH, Ox brain GDH, dogfish liver GDH, rat brain GDH, and bovine brain GDH isoforms. Also on record: method as in PMID 4381532, PMID 7588764, PMID 17924438, PMID 23420347, PMID 7190024. The note with it: pH range of 7.4–8.7, cited from earlier work.
For assay [4], the target named is GDH in HepM and RLM (Rattus norvegicus, UniProt P10860). Nature of the assay: GDH reverse reaction kinetics, summary statements for HepM and RLM. The class given is biochemical. The note with it: summary of Table 2.
GDH in HepM and RLM, sequence (P10860 54-558): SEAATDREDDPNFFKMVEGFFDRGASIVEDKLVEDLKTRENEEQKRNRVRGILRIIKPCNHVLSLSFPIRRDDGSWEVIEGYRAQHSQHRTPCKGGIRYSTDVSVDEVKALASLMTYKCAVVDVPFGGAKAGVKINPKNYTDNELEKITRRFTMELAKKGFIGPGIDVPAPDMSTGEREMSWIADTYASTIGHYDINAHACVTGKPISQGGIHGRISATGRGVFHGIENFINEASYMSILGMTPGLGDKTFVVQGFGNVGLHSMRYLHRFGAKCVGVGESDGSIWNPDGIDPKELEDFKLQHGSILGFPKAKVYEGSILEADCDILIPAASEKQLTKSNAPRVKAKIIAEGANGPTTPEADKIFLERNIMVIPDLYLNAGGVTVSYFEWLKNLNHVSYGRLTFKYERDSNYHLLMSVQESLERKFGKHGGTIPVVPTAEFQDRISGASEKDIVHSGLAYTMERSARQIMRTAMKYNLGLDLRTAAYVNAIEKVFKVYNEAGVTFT
Description: (§2) The decrease in the absorbance at 340 nm was followed for several minutes (~10 min) to allow for full development of the pronounced enzyme hysteretic behavior, although the initial signal decrease (1–3 min) was taken to calculate the GDH rates. The protein concentration ranges used for each mitochondrial type were well within the linearity range of enzyme activity. To calculate the kinetic parameters, the experimental data were fitted by non-linear regression analysis to the Hill or MWC equation, using the Microcal Origin 5.0 software (OriginLab, Northampton, MA, USA).
In assay [5] the target is GDH1 (Rattus norvegicus, UniProt P10860). As to the kind of experiment: Effect of Mg2+ and spermidine on GDH1 activity. The class given is biochemical.
GDH1, sequence (P10860 54-558): as above
Description: as §2
In assay [6] the test system is mammalian liver and brain GDHs. Also on record: method as in PMID 3701332, PMID 7588764, PMID 7190024, PMID 4052048, PMID 1366782. The note with it: cited from earlier work.
Assay [7] relates to prostate cancer, renal cancer, and leukemia cell lines. Also on record: method as in PMID 1372534, PMID 12820434. The note with it: cited from earlier work.
Assay [8] deals with tumors. On the set-up: method as in PMID 10071293. Particulars: clinical trials; cited from earlier work.

RLM GDH1, sequence (P10860 54-558): as above
HepM GDH1, sequence (P10860 54-558): as above

As a reminder, the Km is the concentration of substrate that gives half-maximal velocity. Regarding `O=C(O)CCC(=O)C(=O)O` [2-OG, 2-oxoglutarate], the Km in assay [1] (HepM, pH 7.2, Michaelis–Menten, read-out: Km 2-OG) is 442 ± 160 µM; in assay [1] (HepM, pH 7.5, Michaelis–Menten, read-out: Km 2-OG), 733 ± 325 µM; in assay [2] (RLM, pH 7.2, Michaelis–Menten, read-out: Km 2-OG), 371 ± 232 µM; in assay [2] (RLM, pH 7.5, Michaelis–Menten, read-out: Km 2-OG), 396 ± 75 µM; in assay [3] (read-out: Km 2OG), 470 to 4500 µM.

On to `Nc1ncnc2c1ncn2[C@@H]1O[C@H](COP(=O)(O)OP(=O)(O)O)[C@@H](O)[C@H]1O` [ADP], for which the “Vmax at given ADP concentration” value in assay [1] (0.13 mM ADP) is on record as 0.037 ± 0.009 ΔAbs/min; in assay [1] (0.5 mM ADP), 0.153 ± 0.008 ΔAbs/min; in assay [1] (1.5 mM ADP), 0.193 ± 0.011 ΔAbs/min; in assay [1] ([…] ADP) it was 0.099 ± 0.010 ΔAbs/min; in assay [2] (0.25 mM ADP), 0.131 ± 0.113 ΔAbs/min; in assay [2] (0.75 mM ADP), 0.295 ± 0.022 ΔAbs/min. Further, the “Vmax at given ADP concentration” value in assay [2] (2.1 mM ADP) is on record as 0.367 ± 0.024 ΔAbs/min. Also, the “nH (Hill coefficient) for ADP” value in assay [1] (HepM, pH 7.2, Hill equation) is 2.77 ± 0.7; in assay [1] (HepM, pH 7.5, Hill equation) it was 2.6 ± 0.4; in assay [2] (RLM, pH 7.2, Hill equation), 2.4 ± 0.3; in assay [2] (RLM, pH 7.5, Hill equation) it was 2.34. In addition, the “Ka ADP (activation constant)” value in assay [1] (HepM, pH 7.2, MWC equation) is on record as 0.42 ± 0.26 (3) mM; in assay [1] (HepM, pH 7.5, MWC equation) it was 0.44 ± 0.37 (3) mM; in assay [2] (RLM, pH 7.2, MWC equation) it was 0.51 ± 0.14 (5) mM; in assay [2] (RLM, pH 7.5, MWC equation), 0.11 ± 0.14 (4) mM. The EC50 came out at 564 ± 167 µM in assay [1] (HepM, pH 7.2, allosteric activator, read-out: K0.5 ADP); 281 ± 134 µM in assay [1] (HepM, pH 7.5, allosteric activator, read-out: K0.5 ADP); 567 ± 125 µM in assay [2] (RLM, pH 7.2, allosteric activator, read-out: K0.5 ADP); 285 µM in assay [2] (RLM, pH 7.5, allosteric activator, read-out: K0.5 ADP). For the same compound, the “Hill coefficient (nH) when varying ADP” value in assay [4] is listed as 2.3–2.8.

The Ki is the dissociation constant of the complex between target and ligand, obtained from inhibition or displacement. A word on the IC50: it is the concentration that gives 50% inhibition. Regarding `Nc1nc2c(ncn2[C@@H]2O[C@H](COP(=O)(O)OP(=O)(O)OP(=O)(O)O)[C@@H](O)[C@H]2O)c(=O)[nH]1` [GTP], the Ki in assay [1] (HepM, pH 7.2, MWC equation) worked out at 28 ± 27 µM; in assay [1] (HepM, pH 7.5, MWC equation), 64 ± 59 µM; in assay [2] (RLM, pH 7.2, MWC equation) it was 60 ± 10 µM; in assay [2] (RLM, pH 7.5, MWC equation) it was 31.7 ± 7 µM. Besides, the IC50 is 114 ± 29 µM in assay [1] (HepM, pH 7.2, reverse reaction); 139 ± 21 µM in assay [2] (RLM, pH 7.2, reverse reaction); 244 µM in assay [2] (RLM, pH 7.5, reverse reaction).

For the compound `CC(C)C[C@H](N)C(=O)O` [Leu, L-leucine], the “nH (Hill coefficient) for Leu” value in assay [1] (HepM, pH 7.2, Hill equation) is given as 2.8; in assay [2] (RLM, pH 7.2, Hill equation) it was 2.75. In addition, the EC50 is 2600 µM in assay [1] (HepM, pH 7.2, activator, read-out: K0.5 Leu) and 3900 µM in assay [2] (RLM, pH 7.2, activator, read-out: K0.5 Leu).

Consider `[Cl-].[Cl-].[Mg+2]` [Mg^2+, MgCl2], for which the “Effect on GDH1 activity” value in assay [5] (0- to 0.4-mM added MgCl2) was “not affected”. In addition, the “Inhibition of GDH1 activity” value is reported as under 10% in assay [5] (1 mM Mg^2+) and ~ 20% in assay [5] (2 mM Mg^2+).

As to `NC(=O)C1=CN([C@@H]2O[C@H](COP(=O)(O)OP(=O)(O)OC[C@H]3O[C@@H](n4cnc5c(N)ncnc54)[C@H](O)[C@@H]3O)[C@@H](O)[C@H]2O)C=CC1` [NADH], in assay [6], the Km was 28 to 120 µM.

Take `NC(=O)C1=CN([C@@H]2O[C@H](COP(=O)(O)OP(=O)(O)OC[C@H]3O[C@@H](n4cnc5c(N)ncnc54)[C@H](OP(=O)(O)O)[C@@H]3O)[C@@H](O)[C@H]2O)C=CC1` [NADPH]: the Km in assay [1] (read-out: Km NADPH, HepM, pH 7.2, Michaelis–Menten) is 46 ± 14 µM; in assay [1] (read-out: Km NADPH, HepM, pH 7.5, Michaelis–Menten) it was 109 ± 4 µM; in assay [2] (read-out: Km NADPH, RLM, pH 7.5, Michaelis–Menten), 133 ± 28 µM; in assay [3] (read-out: Km NADPH), 20 to 120 µM; in assay [6] it was 22 to 120 µM.

For the compound `NC(=O)c1ccc[n+]([C@@H]2O[C@H](COP(=O)([O-])OP(=O)(O)OC[C@H]3O[C@@H](n4cnc5c(N)ncnc54)[C@H](OP(=O)(O)O)[C@@H]3O)[C@@H](O)[C@H]2O)c1` [NADP^+], in assay [6], the Km is 160 to 1220 µM.

For the compound `NC(=O)c1ccc[n+]([C@@H]2O[C@H](COP(=O)([O-])OP(=O)(O)OC[C@H]3O[C@@H](n4cnc5c(N)ncnc54)[C@H](O)[C@@H]3O)[C@@H](O)[C@H]2O)c1` [NAD^+], the Km in assay [6] is 170 to 830 µM.

Consider `O=C(O)CCCc1ccccc1` [Phenylbutyrate, phenylbutyrate], for which, in assay [7], the “Growth of cell lines” value is given as “arrests growth”.

The term inhibition denotes the drop in the measured response relative to a control, in per cent. Take `NCCCCNCCCN` [Spermidine]: the “Effect on GDH activity” value in assay [5] (spermidine 0–5 mM, data not shown) is “innocuous”. Besides, the inhibition at 20000 µM in assay [5] (spermidine 20 mM, data not shown, read-out: Inhibition of GDH activity) amounted to 20%.

On to `O=C(O)Cc1ccccc1` [phenylacetate], for which the Antitumor activity entry in assay [8] is recorded as “negligible antitumor activity”. The “Growth of cell lines” value in assay [7] is given as “arrests growth”.
